Here are results for one compound from patent publication US20240016785A1 (Delta 4 GmbH, priority 2020, published 2024).

Assay [1] deals with podocytes of animals with adriamycin induced nephropathy. The following applies: animals treated with clopidogrel as in Example 2, vs untreated adriamycin nephropathy animals.
For assay [2], the system named is adriamycin induced nephropathy in BALB/c mice. On the procedure: Control mice were injected with 0.9% saline. At least 6 mice were analyzed per group. Mice were monitored daily for signs of pain, altered movement, or reduced food uptake and sacrificed by cervical dislocation. Tested drugs were administered per oral administration via pre-mixed chow at drug doses based on literature research.
Urinary albumin levels were assessed by ELISA, urinary total protein and urinary creatinine levels were measured on the Roche Cobas system, using routine laboratory kits. Urinary protein/creatinine (UPCR) ratio and urinary albumin/creatinine ratio (UACR) were assessed at different time points. Weight and physical fitness scores were monitored on a daily basis. At the end of the experiment, tissue sections, plasma and urine samples were collected and stored until further analysis.
Repeated measures ANOVA across timepoints was calculated using the R statistical software framework.

The test system of assay [3] is Adriamycin nephropathy in Balb/c mice. The procedure:
Adriamycin (Doxorubicin; Sigma, D1515-10 mg) was diluted in ddH2O. To induce FSGS, a dose of 10.5 mg/kg mouse was injected i.v. into the tail vein using 27G needles, i. e. a total volume of 200 μl volume per 25 g mouse.
For tail vein injection, mice were anaesthetized using Ketanest (Pfizer, 25 mg/ml vials) and Rompun (Bayer, 20 mg/ml injection solution). A final mix of 12.5 mg/ml Ketanest and 0.25% Rompun in 0.9% NaCl solution was prepared and 200 μl/25 g mouse were injected.
Female Balb/c mice were obtained from the animal breeding facility of the Medical University (Abteilung kir Labortierkunde, Himberg, Austria). 12-16 weeks old animals with a weight >20 g were used for the experiments and adjusted for weight and age. Animals were allowed acclimatization of at least 7 days. Animals were marked by ear or toe clip codes to allow identification. Adriamycin nephropathy in Balb/c mice is the most commonly used animal model for preclinical FSGS studies and shares the central features with human FSGS.
Standard commercial chow from ssniff (ssniff Spezialdiaten GmbH, Soest, Germany) contained crude protein (19%), crude fat (3.3%), crude fiber (4.9%), crude ash (6.4%), starch (36.5%), sugar (4.7%). […] All animals were allowed to eat ad libitum assuming a daily average uptake of ˜4 grams/mouse (according to animal care guideline of the Johns Hopkins University,
Spot urine was collected every week and Creatinine and protein levels were measured.
Urinary albumin was measured by ELISA. 96-well plates were coated over night at 4° C. with 100 μl antibody solution Anti Mouse Serum Albumin antibody (Abcam ab34807, Lot GR3242102-4; diluted 1:2,000) in coating buffer (3.7 g NaHCO3; 0,64 g Na2CO3; 1L distilled water). The remaining procedure was performed at room temperature. Wells were washed 3× with HBSS (Sigma H8264-500 ML) +0,05% Tween-20 (Bio-Rad, #1706531) and blocked in ELISA/ELISPOT Diluent (eBioscience, 00-4202-56) and washed again for 3×. Samples and standard curve were both diluted in ELISA/ELISPOT diluent were incubated for 2 h, followed by 3 wash steps with HBSS+0,05% Tween-20, incubated with HRP antibody Anti Mouse Serum Albumin antibody (Abcam ab19195, Lot GR3242102-4; diluted 1:100,000) for 1 h, followed by 5 wash steps. Reaction was developed with TMB One Solution (Promega, G7431) and stopped with 2N H2SO4. Standard curves were generated with Mouse Albumin (Merck/Sigma, 126674-25MG). 450 nm absorbance was measured on an Epoch Microplate reader (BioTek) using GenS 1.10 software.
At the end of the experiment kidneys were removed, embedded in paraffin and PAS (Periodic acid-Schiff) staining was performed. Histology was thoroughly evaluated and the amount of sclerotic glomeruli and protein casts was quantified.
R version 4.0.2 was used for statistical analysis. Student's t-test was used for comparing UPCR and UACR values between samples from treated and control mice for each individual time point and to assess differences in histological parameters. Repeated measures ANOVA was performed to analyse the drug's impact on UPCR and UACR over time using the respective functions in the rstatix package (V0.6.0). ggplot2 (V3.3.2) and ggpubr (V0.4.0) packages were used for generating the graphical visualizations.
In two independent experiments (Experiment 1 and 2), 34 female Balb/c mice were injected with 10.5 mg/kg adriamycin into the tail vein (see table 2). […] Spot urine was collected weekly, kidneys were harvested at sacrifice. 10.5 mg/kg Adriamycin were injected into the tail vein. […] Urine was collected and weight was measured weekly. The experiments lasted about 5 weeks.

As for `COC(=O)[C@H](c1ccccc1Cl)N1CCc2sccc2C1` [Clopidogrel, (S)-Methyl-(2-chlorphenyl)-2-(6,7-dihydro-4H-thieno[3,2-c]pyridin-5-yl)acetate], the “podocyte injury (podocytopathy) by electron microscopy” value in assay [1] was “significantly reduced podocyte injury”. Also, the “UPCR at 37 days after start, compared with Ctrl mice” value in assay [2] (FIG. 1, mice could recover from Adriamycin induced FSGS in this experiment) is reported as “reduced to similar levels”. In assay [2] (adriamycin approx. 9 mg/kg, drug via pre-mixed chow, p=0.009 (drug)), the “effect of drug administration on UPCR, repeated measures ANOVA across timepoints” value is listed as “significant”. Besides, the “glomerular sclerosis index (sclerotic glomeruli of all glomeruli), highest reached in any sample” value in assay [3] (PAS staining, untreated control group went up to 35%) is listed as at most 4%. Moreover, in assay [3] (both experiments together, average across all time points, chow + 200 mg/kg Clopidogrel (~25-30 mg/kg mouse/day) from 48 h after adriamycin 10.5 mg/kg i.v., vs control mice), the “reduction of UPCR (urinary protein to creatinine ratio)” value stood at 49%. Besides, the “reduction of UACR (urinary albumin to creatinine ratio)” value in assay [3] (both experiments together, average across all time points, chow + 200 mg/kg Clopidogrel, vs control mice) came out at 61%. Besides, the “average histopathological damage score” value in assay [3] (clopidogrel-treated group, control average 2.67, p=0.038) is 0.86. For the same compound, the “severe disease (glomerular sclerosis)” value in assay [3] (histopathology, FIG. 8A, B) is “completely prevented severe disease”. The “reduction of ADR-associated weight loss” value in assay [3] (overall, both experiments, weight measured weekly, vs control mice) is on record as 48%. Moreover, in assay [3] (vs control group, FIG. 8C), the “tubular ectasia, determined by protein cylinders in PAS staining” value was “strongly ameliorated”. For the same compound, in assay [3] (weekly over the course of the experiments), the “weight loss compared to control mice” value is given as “less weight loss”.
